Literature values, collected in patent US12029822B2, “Drug delivery systems containing oxidized cholesterols” (Georgia Tech Research Corporation, priority 2019, dated 2024).

System: AB1-HA tumor
Conditions: CTX treatment at Day 9

O=P1(N(CCCl)CCCl)NCCCO1 (stereo not shown) [CTX, Cyclophosphamide]
cure rate: 75%
